The record followed here is patent publication US4528290A, “Stimulating dopamine D-1 receptors” (Eli Lilly and Company, priority 1984, dated 1985).

SMILES strings stand for the structures.

The experiment has as its system dopamine D-1 receptors (cyclic AMP efflux, striatal tissue). Nature of the experiment: tissue or blood. As to the method: A second, particularly sensitive indicator of D-1 agonist activity is the determination of the cyclic AMP efflux in tissue slices using a procedure based on Stoof and Kebabian (loc. cit). In this procedure, striatal tissue is dissected from rat brains and chopped into 0.3 mm.×[…]. fragments. The tissue fragments are suspended in the appropriate buffer system (Earl's balanced salt solution, for example) and the suspension is continuously aerated with 95:5 O2 /CO2 while being maintained at 37° C. Just prior to use, the tissue fragments are transferred to fresh media to which is added bovine serum albumin (2.5 mg./ml.) and 3-isobutyl-1-methylxanthine (1 millimolar) to block degradation of cyclic AMP. The tissue fragments are incubated in buffer without drugs and are then transferred to the same media with added drug. Aliquots of incubation media, with and without drugs, are assayed for cyclic AMP concentration by a specific radioimmunoassay. The effect of the drug or drugs on efflux is expressed as a percentage of the resting efflux. The following medium was employed:
Sulpiride is known to be an antagonist on pituitary D-2 receptors. Addition of sulpiride to a test system, such as that described above, blocks any D-2 effect of a drug in reducing cyclic AMP production.

On to `CCCN1CCC[C@@H]2Cc3[nH]ncc3C[C@H]21` [4aR, 8aR enantiomer, 4aR,8aR-5-n-propyl-4,4a,5,6,7,8,8a,9-octahydro-1H(and 2H)-pyrazolo[4,3-g]-quinoline], for which the “cyclic AMP production increase by SKF38393 after addition of the compound” value (compound at 0.5×10^-6 M added to SKF38393 10^-6 molar (145% alone)) turned out to be 42%.
Turning to `Oc1cc2c(cc1O)C(c1ccccc1)CNCC2` (stereo not shown) [SKF38393, 1,2,3,4-tetrahydro-7,8-dihydroxy-1-phenyl-1H-3-benzazepine], for the setting “Rattus norvegicus, read-out: increase of cyclic AMP production”, the activation at 1 µM turned out to be 145%.
With `CCN1CCCC1CNC(=O)c1cc(S(N)(=O)=O)ccc1OC` (stereo not shown) [sulpiride], the “effect of sulpiride on the lowering of the SKF38393 cyclic AMP increase by the trans-(-)-enantiomer” value (sulpiride 10^-6 M) was “suppressed”. The “effect of sulpiride on the increase in cyclic AMP efflux caused by A” value (sulpiride 10^-6 M with A 5 × 10^-7 M) is listed as “no effect on the increase in cyclic AMP efflux”.
